Square brackets hold non-standard residues; d marks the D form. Peptide text beside a SMILES is read from it. Nle = CCCC[C@H](N)C(=O)O
Legend:
Hsp70 = Hsp70 induction in HepG2 cells ([3H]-leucine labeling, denaturing immunoprecipitation); assay type: cell-based, human; details: for Hsp70 levels after removal of ALLN: 4-hour preincubation
Protocol: HepG2 cells were grown up to 95% confluence and then preincubated for 4 hours in a 37° C. incubator with serum-free minimum essential medium (MEM), followed by radiolabeling with 3H-leucine (150 μCi/ml) dissolved in serum-free, leucine-free medium. Preincubation and labeling medium each contained 1.5% bovine serum albumin (BSA) plus different concentrations of ALLN as indicated. After labeling, cells were collected and lysed, and Hsp70 was immunoprecipitated under denaturing conditions as described under Experimental Details. Cell lysates containing an equal amount of TCA-insoluble radioactivity were used for immunoprecipitation. (A): The immunoprecipitates were analyzed by sodium dodecyl sulfate-polyacryamide gel electrophoresis (SDS-PAGE) and fluorography. Numbers on the left-hand side denote molecular markers. (B): The Hsp70 radioactivity was quantitated by scintillation counting and plotted. All the values were presented as means±SD from three individual culture dishes.
(§1) FIGS. 3A-3B: Effects of the other protease inhibitors on Hsp70 biosynthesis in HepG2 cells. HepG2 cells were preincubated in serum-free MEM containing either 1.5% BSA alone (Control), or BSA plus 40 μg/ml of ALLN, 40 μg/ml of ALLM, 50 μg/ml of leupeptin, 50 μg/ml of pepstatin A, 25 μg/ml of E-64d, 1 mM of phenylmethylsulfonyl fluoride (PMSF), 100 KIU/ml of apotinin, 1 mM of Benzamidine (Benz), 200 μM of calpain inhibitor peptide (CIP). Radiolabeling (in the presence of protease inhibitors), lysis and immunoprecipitation were performed as described in FIG. 1. The Hsp70 specific radioactivity (A) and the amount of total incorporated radioactivity (TCA-cpm) (B) were compared with each other. All the values were presented as the mean±SD from three individual culture dishes.
FIGS. 9A-9B: Effects of proteasome inhibitors on Hsp70 induction. HepG2 cells were preincubated with the proteasome inhibitors MG132 at a final concentration of either 10 μM or 30 μM (A), or lactacystin at 10 μM (B) for 4 hours under conditions described in FIG. 3. These cells were then subjected to radiolabeling (30 min), cell lysis, and immunoprecipitation with anti-Hsp70 antibody. The experiments with MG132 (A) were repeated twice; the effects of lactacystin (B) were studied in triplicate culture dishes.
ALLN, leupeptin, mouse anti-human Hsp72/73 monoclonal antibody, a secondary antibody conjugated with horseradish peroxidase (HRP) (goat anti-rabbit immunoglubin G [IgG]), and rabbit anti-rat IgG antibody were from Boehringer Mannheim Co. Anti-Human Hsp25 and anti-human Hsp60 monoclonal antibodies, ALLM, Calpain inhibitor peptide (CIP), dimethyl sulfoxide (DMSO) and dithiothreitol (DTT) were from Sigma. Human Hsp70 oligonucleotide probe was from Oncogene Science. This oligonucleotide was ^32P labeled at the 5′-end by T4 Kinase, which was from Biolabs. ^32P was from ICN Pharmaceutical Inc. L-[4,5-^3H] leucine was from Amersham Co. Anti-human Bip (immunoglobulin heavy chain binding protein, also called Grp78), anti-human Hsp27, anti-human Hsp60, and anti-human Hsp90 monoclonal antibodies were from Stress Genes. Anti-human Hsp86 and Hsp104 antibodies were from Affinity Bioreagent Inc. Nitrocellular transfer and immobilization membranes were from Schleicher & Schuell, Keene, N.H. RNA extraction kits were from Biotect, Tex. The polyclonal antibody against the human HSF1 protein was a generous gift from Dr. Carl Wu of the National Institute of Health (Rabindran, et al., 1993). Ethylene glycol bis(succunimidylsuccinate) (EGS) was from Pierce. Cbz-leucyl-leucyl-leucinal (MG132) was a gift of Dr. H. Ploegh at the Massachusetts Institute of Technology. All the other tissue culture supplies and chemicals were obtained from supplies as previously described (Dixon, et al., 1991). The HepG2 cell culture conditions were maintained as previously described (Dixon, et al., 1991).

HepG2 cells = experiment: Total incorporation of radiolabel (TCA cpm) as indicator of cell toxicity in HepG2 cells; assay type: cell-based, human; details: ALLN 10 μg/ml
Protocol: as §1
Preincubation and labeling media each contained either 1.5% bovine serum albumin (BSA) alone, or BSA plus ALLN (40 μg/ml except as otherwise indicated), or BSA plus other protease inhibitors at concentrations indicated in the figure legends. At the indicated times, cells were removed from the 37° C. incubator and placed on ice, washed with cold phosphate-buffer saline (PBS) twice and lysed with lysis buffer containing 1% Triton X-100 (TX100), 1% deoxycholic acid (DOC) and 0.1% SDS in PBS containing proteinase inhibitors: 2 mM phenylmethylsulfonyl fluoride (PMSF); 2 μg/ml ALLN; 2 μg/ml leupeptin; and 2 μg/ml aprotinin. After a 30 min. incubation with lysis buffer at 4° C., the lysates were centrifuged at 14,000 g in a microcentrifuge for 5 min., and the supernatants were adjusted to 1% SDS concentration and boiled for 5 min. to denature the proteins. 1% TX100 was then added to dilute the lysates to a final concentration of 0.1% SDS. Cell lysates containing equal amounts of trichloroacetic acid (TCA)-insoluble radioactivity were used for immunoprecipitations by incubating with individual monoclonal antibody (1 μg/ml) for 2.5 hours at 4° C. Protein-A Sepharose 4B was added afterwards and the lysates incubated for another 1.5 hours at 4° C. to collect the immunocomplexes. […]

CCCC[C@@H](C=O)NC(=O)[C@H](CC(C)C)NC(=O)[C@H](CC(C)C)NC(C)=O [ALLN, N-acetyl-leucyl-leucyl-norleucinal] (Ac-Leu-Leu-[Nle]-aldehyde)
Hsp70 levels after removal of ALLN (Hsp70; HepG2, end of a 2-hour wash): 25 fold
Hsp70 levels after removal of ALLN (Hsp70; HepG2, end of a 6-hour wash): 8 fold
Hsp70 levels after removal of ALLN (Hsp70; HepG2, end of an 8-hour wash): 4 fold
increment of newly synthesized Hsp70 levels compared with untreated cells (Hsp70; HepG2, 30 min labeling, ALLN 40 μg/ml, data from several experiments): ~30 fold
response of cellular Hsp70 levels to ALLN dose (Hsp70; HepG2, 4 hours, different doses (FIG. 1)): dose-dependent response
induction of Hsp70 by protease inhibitors (FIG. 3A) (Hsp70; HepG2, 4 h pre-treatment, ALLN 40, ALLM 40, leupeptin 50, pepstatin A 50, E-64d 25 μg/ml, PMSF 1 mM, aprotinin 100 KIU/ml): significantly induce
increase in rate of incorporation of [3H]-leucine into Hsp70 (Hsp70; HepG2, 4 h preincubation with ALLN 40 μg/ml, labeling 10-60 min, every time point): about 25 fold
Hsp70 levels induced (Hsp70; HepG2, low concentration of ALLN 10 μg/ml, 4 h pre-treatment): more than 9 fold
induction of Hsp70 levels above baseline (Hsp70; HepG2 cells and human endothelial cells): up to 30 fold
cell total incorporation of radiolabel (TCA cpm, indicator of cell toxicity) (HepG2 cells): did not change significantly
